In ChEMBL document CHEMBL1146322, “Synthesis and biological evaluation of some 5-ethoxycarbonyl-6-isopropylamino-4-(substitutedphenyl)aminopyrimidines as potent analgesic and anti-inflammatory agents” (Bioorg Med Chem Lett, 2007):

Key:
Rattus norvegicus [1] = assay: Antiinflammatory activity in rat at 50 mg/kg, po; type: functional
Mus musculus = assay: Analgesic activity in Albino mouse assessed as inhibition of acetic acid-induced writhing at 50 mg/kg, po; type: functional
Rattus norvegicus [2] = species: Rattus norvegicus; assay: Toxicity in rat assessed as ulcerogenic potential; type: organism-based; conditions: in vivo

Row | Structure (SMILES) | inhibition in vivo at 50 mg/kg (Rattus norvegicus [1]) [%] | inhibition in vivo at 50 mg/kg (Mus musculus) [%] | UI (Rattus norvegicus [2])
1 | CCOC(=O)c1c(Nc2ccc(Cl)cc2)ncnc1NC(C)C | 30.9 | 70.2 | –
2 | CCOC(=O)c1c(Nc2ccc(S(N)(=O)=O)cc2)ncnc1NC(C)C | 87.7 | 72.6 | 0.241
3 | CCOC(=O)c1c(NC(C)C)ncnc1Oc1ccccc1 | 55.5 | 70.2 | –
4 | O=C([O-])Cc1ccccc1Nc1c(Cl)cccc1Cl.[Na+] [DICLOFENAC SODIUM] | – | 78 | 0.805
5 | CCOC(=O)c1c(Nc2ccc(OC)cc2)ncnc1NC(C)C | 62.7 | 85.1 | –
6 | Cc1ccc(-c2cc(C(F)(F)F)nn2-c2ccc(S(N)(=O)=O)cc2)cc1 [CELECOXIB] | 82.1 | – | 0.104
7 | CCOC(=O)c1c(Nc2ccc([N+](=O)[O-])cc2)ncnc1NC(C)C | 84.6 | 77.4 | –
8 | CCOC(=O)c1c(Nc2ccc(C)cc2)ncnc1NC(C)C | 89.7 | 72 | 0.29
